Residues, ends and D or L forms follow the SMILES beside them.

Series [1] concerns human pancreatic cancer BxPC-3 xenograft. The settings on record: for intratumoral macrophage infiltration (F4/80 staining): 25 mg/kg GF9, 2.5 mg/kg GF9-sSLP/GF9-LPC, 4 mg/kg GA/E31-sSLP where stated; for tumor growth: i.p. 5qw, 25 mg/kg GF9, 2.5 mg/kg GF9-SLP, 4 mg/kg GA/E31-SLP where stated. The protocol:
(B) F4/80 staining. Results are expressed as the mean±SEM (n=4 mice per group). *, p<0.05; **, p<0.01, ****, p<0.0001 (versus vehicle). […] Scale bar=200 μm.
Treatment persisted for 31, 29 and 29 days for mice containing AsPC-1, BxPC-3 and Capan-1 tumor xenografts, respectively. Mean tumor volumes are calculated and plotted. All results are expressed as the mean±SEM (n=6 mice per group). On the final day of treatment, tumor volumes were compared between the drug-treated and control groups. **, p<0.01; ***, p<0.001; ****, p<0.0001 (versus vehicle).
As described herein, after tumors in AsPC-1-, BxPC-3- or Capan-1-bearing mice reached a volume of 150-200 mm^3, mice were randomized into groups and intraperitoneally (i.p.) administered once daily 5 times per week (5qw) with either vehicle (black diamonds), GA/E31-dSLP (light gray triangles) or GA/E31-sSLP (white triangles) at indicated doses. Treatment persisted for 31, 29 and 29 days for mice containing AsPC-1, BxPC-3 and Capan-1 tumor xenografts, respectively. Mean tumor volumes are calculated and plotted. All results are expressed as the mean±SEM (n=6 mice per group). On the final day of treatment, tumor volumes were compared between the drug-treated and control groups. **, p<0.01; ***, p<0.001; ****, p<0.0001 (versus vehicle).
Treatment persisted for 31, 29 and 29 days for mice containing AsPC-1, BxPC-3 and Capan-1 tumor xenografts, respectively. Kaplan-Meier survival curves are shown for AsPC-1-, BxPC-3- or Capan-1-bearing mice (n=6 mice per group). **, p<0.01; ***, p<0.001 by log-rank test (versus vehicle).
Serum CSF1, VEGF and IL-6 levels were analyzed on study days 1 and 8 in BxPC-3-bearing mice treated daily 5 times per week (5qw) with either vehicle (black diamonds), GF9 (white circles) or GF9-LPC (black circles) at indicated doses. Results are expressed as the mean±SEM (n=5 mice per group). *, p<0.05; **, p<0.01; ***, p<0.001; ****, p<0.0001 (versus vehicle).

For series [2], the system named is C57BL/6J neonatal mice with oxygen-induced retinopathy. Nature of the series: Oxygen-induced retinopathy (OIR): pathological retinal neovascularization. The format is in vivo. The protocol: Litters of C57BL/6J (Jackson Laboratory, Bar Harbor, Me.) neonatal mice and nursing dams were exposed to a hyperoxia environment (75% oxygen) from postnatal day 7 (P7) to P12 and returned to normoxia until P17. The hyperoxia exposure causes degeneration of the immature retinal vessels. […] Beginning on P7, mice were treated until day P17 by daily i.p. injections of GF9, GF9-SLP, TREM-1/TRIOPEP-sSLP or vehicle (phosphate-buffered saline, pH 7.4; PBS). […] In another subset of experiments, rho B-labeled Gd-containing sSLP were used to confirm the ability of these targeted SLP to cross the BRB in other species (rats and rabbits). In another subset of experiments, neonatal mice and nursing dams were not subjected to a hyperoxia environment and reared in room air (RA). […]
Treatment effects on vaso-obliteration and pathological angiogenesis were assessed by morphometric analysis of the avascular and neovascularization areas in retinal flat mounts after labeling with isolectin B4 as described in Patel, et al. Am J Pathol 2014, 184:3040-3051. […] After washing 3 times with PBS, the images were captured with a 20× lens using a Zeiss Axioplan2 fluorescence microscope (Carl Zeiss Meditec, Inc., Dublin, Calif.). Intravitreal neovascular formation and avascular area were measured as described in Connor, et al. Nat Protoc 2009, 4:1565-1573. […]

`CC(C)C[C@H](NC(=O)[C@H](Cc1ccccc1)NC(=O)CN)C(=O)N[C@@H](CO)C(=O)N[C@@H](CCCCN)C(=O)N[C@@H](CO)C(=O)N[C@@H](CC(C)C)C(=O)N[C@H](C(=O)N[C@@H](Cc1ccccc1)C(=O)N[C@@H](Cc1c[nH]c2ccccc12)C(=O)N[C@@H](CCC(N)=O)C(=O)N[C@@H](CCC(=O)O)C(=O)N[C@@H](CCC(=O)O)C(=O)N[C@@H](CC[S+](C)[O-])C(=O)N[C@@H](CCC(=O)O)C(=O)N[C@@H](CC(C)C)C(=O)N[C@@H](Cc1ccc(O)cc1)C(=O)N[C@@H](CCCNC(=N)N)C(=O)N[C@@H](CCC(N)=O)C(=O)N[C@@H](CCCCN)C(=O)N[C@H](C(=O)O)C(C)C)C(C)C` (stereo partly drawn) [G-KV21] (HELM PEPTIDE1{G.F.L.S.K.S.L.V.F.W.Q.E.E.[CS(=O)CC[C@H](N[*:1])C(=O)[*:2]].E.L.Y.R.Q.K.V}$$$$V2.0): in series [1], the “intratumoral macrophage infiltration (F4/80 staining)” value is “reduce macrophage infiltration into the tumor” and the tumor growth entry was “significantly inhibits the tumor growth”. Also, the “reduction of pathological RNV” value in series [2] (free peptides, daily i.p. P7-P17 at indicated doses) is listed as “up to 95%”.

Turning to `CC(C)C[C@H](NC(=O)[C@H](Cc1ccccc1)NC(=O)CN)C(=O)N[C@@H](CO)C(=O)N[C@@H](CCCCN)C(=O)N[C@@H](CO)C(=O)N[C@@H](CC(C)C)C(=O)N[C@H](C(=O)N[C@@H](Cc1ccccc1)C(=O)NCC(=O)N[C@@H](CCC(=O)O)C(=O)N[C@@H](CCC(=O)O)C(=O)N[C@@H](CC[S+](C)[O-])C(=O)N[C@@H](CCCNC(=N)N)C(=O)N[C@@H](CC(=O)O)C(=O)N[C@@H](CCCNC(=N)N)C(=O)N[C@@H](C)C(=O)N[C@@H](CCCNC(=N)N)C(=O)N[C@@H](C)C(=O)N[C@@H](Cc1c[nH]cn1)C(=O)N[C@H](C(=O)O)C(C)C)C(C)C` (stereo partly drawn) [G-HV21] (HELM PEPTIDE1{G.F.L.S.K.S.L.V.F.G.E.E.[CS(=O)CC[C@H](N[*:1])C(=O)[*:2]].R.D.R.A.R.A.H.V}$$$$V2.0), in series [1], the “intratumoral macrophage infiltration (F4/80 staining)” value is recorded as “reduce macrophage infiltration into the tumor” and the tumor growth entry was “significantly inhibits the tumor growth”.

Consider `CC(C)C[C@H](NC(=O)[C@H](Cc1ccccc1)NC(=O)CN)C(=O)N[C@@H](CO)C(=O)N[C@@H](CCCCN)C(=O)N[C@@H](CO)C(=O)N[C@@H](CC(C)C)C(=O)N[C@H](C(=O)N[C@@H](Cc1ccccc1)C(=O)O)C(C)C` [GF9] (H-GFLSKSLVF-OH), for which the “toxicity / tolerability in mouse litters” value in series [2] (mouse, in vivo) was “non-toxic and well-tolerated in mouse litters”.
